Source: patent US11673878B2, “Benzazepine derivatives” (OTSUKA PHARMACEUTICAL CO., LTD., priority 2017, dated 2023)

Tests used:
[1] = molecular target: T1, rat vasopressin V1a receptor (Rattus norvegicus, UniProt P30560); experiment: Binding inhibition test for rat V1a receptor (3H-AVP, rat hepatic membrane); conditions: inhibition of 3H-AVP binding, rat hepatic membrane V1a receptor fractions, 4° C., 2 hours; read-out: Binding affinity rV1a (IC50)
T1 construct: V1a receptor fractions derived from rat hepatic membrane; from tissue; host or cells: rat liver (hepatic membrane)
Protocol: (§1) Various compounds were studied in binding affinities for vasopressin receptors with an indicator of binding inhibition of rat vasopressin V1a receptor and vasopressin V2 receptor of ^3H-arginine vasopressin (AVP) (NET800, available from PerkinElmer Inc., Life Sciences).
(1) Binding Inhibition Test for Rat V1a Receptor (rV1aR)
50 μg of V1a receptor fractions derived from rat hepatic membrane were diluted with a reaction solution (100 mM Tris-HCl (pH 8.0), 0.1% BSA, 5 mM MgCl2, 1 mM EDTA) and added to each well of a 96-well plate. A compound was added to each well in various concentrations (0.3 nM to 100 nM), and ^3H-AVP was added thereto in the range of 1 nM to 3 nM. Reactions were carried out at 4° C. for 2 hours on the plate. Via receptor fractions were collected with a 96-well glass filter (Unifilter GF/B) after the reactions and washed with a washing solution (10 mM Tris-HCl (pH 8.0), 5 mM MgCl2, 1 mM EDTA) three times, and then the radioactivity of ^3H-AVP was measured with a scintillation counter.
(§2) ^3H-AVP binding rate in the presence of a compound was calculated by the following equation. Binding rate (%)=(B−NSB)/(TB−NSB)×100 (B: Binding amount of ^3H-AVP in the presence of each compound, NSB: Binding amount of ^3H-AVP in the presence of 1 μM of unlabeled AVP, TB: Binding amount of ^3H-AVP in the absence of 1 μM of unlabeled AVP)

[2] = molecular target: T2, rat vasopressin V2 receptor (Rattus norvegicus, UniProt Q00788); experiment: Binding inhibition test for rat V2 receptor (3H-AVP, rV2R-CHO cells); conditions: inhibition of 3H-AVP binding, 4° C., 2 hours, read-out: Binding affinity rV2 (IC50)
T2 construct: expressed in transfected cells; host or cells: CHO cells (rV2R-CHO)
Protocol: as §1
(2) Binding Inhibition Test for Rat V2 Receptor (rV2R)
Rat V2 receptor-expressed CHO cells (rV2R—CHO) were incubated on 10% FBS-containing DMEM/F12 in a 24-well plate, and each cell was washed with D-PBS twice. A reaction solution (D-PBS containing 0.1% BSA and 0.05% sodium azide) comprising a compound in various concentrations (0.3 nM to 100 nM) was added to each well, and a certain amount of ^3H-AVP was added thereto (100-fold dilution). Reactions were carried out at 4° C. for 2 hours on the plate. Then, each well was washed with D-PBS twice and 0.1N NaOH was added to each well. The cells were collected, and the radioactivity of ^3H-AVP was measured with a scintillation counter.
as §2

[3] = Metabolic stability test in human liver microsomes; type: in vitro ADME; conditions: pH 7.4; human liver microsomes 1 mg/mL, test compound 1 μmol/L, NADPH and NADH, 37° C., n = 4; read-out: CLint (μL/min/mg) mean ± SD
Protocol: Reaction System and Incubation
According to methods of Obach and Jones, et al. (methods described in R. S. Obach, Drug Metab. Dispos. 1999 (27): 1350-1359 and H. Jones and J. B. Houston, Drug Metab. Dispos. 2004 (32): 973-982), the reaction system shown below was prepared and metabolic stabilities of test compounds (the present compounds and, tolvaptan) were evaluated using the reaction system shown below. Human liver microsomes purchased from Corning Inc. were used. Test compounds were dissolved in DMSO at the concentration of 10 mmol/L and then diluted with acetonitrile to prepare a 100 μmol/L solution for use in the test. The 100 μmol/L solutions were used in the experiment.
Human liver microsome 1 mg/mL
Co-factor (NADPH and NADH) 1 mmol/L each
Magnesium chloride 5 mmol/L
100 mmol/L Potassium phosphate buffer (pH 7.4)
The reaction mixture without co-factors was pre-incubated at 37° C. for 5 minutes, and then the reaction was initiated by the addition of the co-factors. The mixture was incubated for 0, 5, 10, 20, 30, and 60 minutes after the addition of the co-factors. An aliquot of the reaction mixture was removed and added to a methanol solution containing an internal standard (IS) and mixed to terminate the reaction at each predetermined time.
After the reaction was terminated, the mixture was separated by centrifugation and the supernatant was injected into a liquid chromatograph-tandem mass spectrometer (LC-MS/MS) to measure unchanged substances remained in the reaction system. The mass spectrometer was operated in a positive ion mode of the electrospray ionization (ESI) method. Unchanged substances and the IS were detected by multiple reaction monitoring (MRM) transitions using selected precursor and product ions set.
The remaining ratios of test compounds were calculated by the following equation. Remaining ratio=(Peak area ratio of a test compound to IS at t minutes after incubation)÷(Peak area ratio of a test compound to IS at 0 minute)
The slope of X-axis (the incubation time) and Y-axis (logarithm of the remaining ratio) was calculated by a non-linear least square method. Hepatic intrinsic clearance (CLint) was calculated by the following equation. CLint(μL/min/mg)=−(Slope(min^−1))÷1(mg/mL)×1000

[4] = Pharmacokinetics study in mice, single oral dose; type: in vivo; conditions: mouse; male ICR mice, single-dose oral administration of 30 mg/kg, plasma
Protocol: A pharmacokinetics (PK) study was performed using male ICR mice to compare the oral absorption properties of the present compounds with tolvaptan. A test compound was suspended in a 1% hydroxypropyl methylcellulose (HPMC) solution to be adjusted to the concentration of 4.5 mg/mL. The present compounds were used as the forms obtained in the above examples (including the amorphous form) for a test compound, or used after spray drying, if needed.
Male ICR mice (7-week old) were freely fed food and water and weighed on an electronic scale. Then, a test compound was orally administered at the dose of 30 mg/kg […]. After the oral administration, blood was collected from the abdominal vena cava under isoflurane anesthesia using a 1 mL heparinized syringe with a 26 G injection needle. Blood was separated by centrifugation at 4° C., 3000 rpm for 10 minutes to give plasma in a supernatant. The plasma concentration of a test compound was measured by LC-MS/MS.
The following PK parameters were calculated using the mean plasma concentrations of unchanged substances obtained from two animals at each time point.
Cmax: Maximum plasma concentration (μg/mL)
tmax: Time-to-maximum plasma concentration (h)
AUCinf: Area under the plasma concentration-time curve from administration to infinite time (μg h/mL)

T2 sequence (Q00788 whole entry): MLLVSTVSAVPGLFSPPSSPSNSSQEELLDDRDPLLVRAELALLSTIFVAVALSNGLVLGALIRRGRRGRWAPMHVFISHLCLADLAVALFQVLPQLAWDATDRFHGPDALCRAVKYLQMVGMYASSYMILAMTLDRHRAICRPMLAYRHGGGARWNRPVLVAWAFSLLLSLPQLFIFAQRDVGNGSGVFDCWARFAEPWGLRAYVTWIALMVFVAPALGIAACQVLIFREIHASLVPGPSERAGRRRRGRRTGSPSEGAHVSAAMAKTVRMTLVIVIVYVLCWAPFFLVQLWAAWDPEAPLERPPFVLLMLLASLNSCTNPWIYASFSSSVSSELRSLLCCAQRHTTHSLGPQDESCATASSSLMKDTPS
T1 sequence (P30560 whole entry): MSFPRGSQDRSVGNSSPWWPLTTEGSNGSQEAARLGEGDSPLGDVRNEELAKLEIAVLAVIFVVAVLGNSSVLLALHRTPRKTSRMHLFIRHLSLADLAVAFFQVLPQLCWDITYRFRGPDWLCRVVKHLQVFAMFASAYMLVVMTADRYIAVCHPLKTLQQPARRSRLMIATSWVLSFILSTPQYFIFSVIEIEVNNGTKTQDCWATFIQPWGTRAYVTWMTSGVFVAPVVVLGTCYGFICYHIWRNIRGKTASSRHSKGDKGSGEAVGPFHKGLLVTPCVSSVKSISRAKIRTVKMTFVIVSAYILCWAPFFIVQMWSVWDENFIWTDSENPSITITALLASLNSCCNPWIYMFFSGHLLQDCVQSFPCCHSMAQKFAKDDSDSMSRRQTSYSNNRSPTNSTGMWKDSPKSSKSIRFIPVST

| SMILES | IC50 [1] [nM] | IC50 [2] [nM] | microsomal CLint at 1 μmol/L [3] [µL/min/mg] | AUC(0-inf) [4] [ng·h/mL] | Cmax [4] [ng/mL] | Tmax [4] [h] |
| --- | --- | --- | --- | --- | --- | --- |
| O=C(Nc1ccc(C(=O)N2CCC(F)(F)C(O)(CO)c3cc(Cl)ccc32)cn1)c1ccccc1C(F)(F)F (stereo not shown) [Example 2, N-{5-[7-chloro-4,4-difluoro-5-hydroxy-5-(hydroxymethyl)-2,3,4,5-tetrahydro-1H-1-benzazepine-1-carbonyl]pyridin-2-yl}-2-(trifluoromethyl)benzamide] | 3.4 | 2.1 | < 4 | 95700 | 9230 | 1 |
| O=C(Nc1ccc(C(=O)N2CCC(F)(F)[C@](O)(CO)c3cc(Cl)ccc32)cn1)c1cc(F)ccc1-c1ccccc1F [Example 165, N-{5-[(5R)-7-chloro-4,4-difluoro-5-hydroxy-5-(hydroxymethyl)-2,3,4,5-tetrahydro-1H-1-benzazepine-1-carbonyl]pyridin-2-yl}-2′,4-difluoro-[1,1′-biphenyl]-2-carboxamide] | 1.7 | 3.4 | 3.61 ± 2.43 | 41500 | 7720 | 1 |
| O=C(Nc1ccc(C(=O)N2CCC(F)(F)[C@](O)(CO)c3cc(Cl)ccc32)cc1F)c1cc(F)ccc1-c1ccccc1F [Example 168, N-{4-[(5R)-7-chloro-4,4-difluoro-5-hydroxy-5-(hydroxymethyl)-2,3,4,5-tetrahydro-1H-1-benzazepine-1-carbonyl]-2-fluorophenyl}-2′,4-difluoro-[1,1′-biphenyl]-2-carboxamide] | 2.2 | 4.7 | 7.48 ± 1.5 | 40900 | 7110 | 1 |
| O=C(Nc1ccc(C(=O)N2CCC(F)(F)[C@](O)(CO)c3cc(Cl)ccc32)cc1F)c1cc(F)ccc1Cl [Example 24, 2-chloro-N-{4-[(5R)-7-chloro-4,4-difluoro-5-hydroxy-5-(hydroxymethyl)-2,3,4,5-tetrahydro-1H-1-benzazepine-1-carbonyl]-2-fluorophenyl}-5-fluorobenzamide] | 2.7 | 1.5 | < 4 | 44000 | 4080 | 4 |
| O=C(Nc1ccc(C(=O)N2CCC(F)(F)[C@](O)(CO)c3cc(Cl)ccc32)cn1)c1cc(F)ccc1-c1ccccc1 [Example 96, N-{5-[(5R)-7-chloro-4,4-difluoro-5-hydroxy-5-(hydroxymethyl)-2,3,4,5-tetrahydro-1H-1-benzazepine-1-carbonyl]pyridin-2-yl}-4-fluoro-[1,1′-biphenyl]-2-carboxamide] | 2 | 5 | 0.953 ± 1.91 | 43000 | 5550 | 4 |
| O=C(Nc1ccc(C(=O)N2CCC(F)(F)[C@](O)(CO)c3cc(Cl)ccc32)cn1)c1cc(F)c(Cl)cc1Cl [Example 52, 2,4-dichloro-N-{5-[(5R)-7-chloro-4,4-difluoro-5-hydroxy-5-(hydroxymethyl)-2,3,4,5-tetrahydro-1H-1-benzazepine-1-carbonyl]pyridin-2-yl}-5-fluorobenzamide] | 8.8 | 3 | < 4 | 62700 | 5570 | 1 |
| O=C(Nc1ccc(C(=O)N2CCC(F)(F)[C@](O)(CO)c3cc(Cl)ccc32)cn1)c1cccnc1-c1ccccc1 [Example 97, N-{5-[(5R)-7-chloro-4,4-difluoro-5-hydroxy-5-(hydroxymethyl)-2,3,4,5-tetrahydro-1H-1-benzazepine-1-carbonyl]pyridin-2-yl}-2-phenylpyridine-3-carboxamide] | 5.4 | 1.4 | 6.98 ± 4.77 | 8310 | 3130 | 1 |
| O=C1c2cc(F)ccc2CCN1c1ccc(C(=O)N2CCC(F)(F)[C@](O)(CO)c3cc(Cl)ccc32)cc1 [Example 187, 2-{4-[(5R)-7-chloro-4,4-difluoro-5-hydroxy-5-(hydroxymethyl)-2,3,4,5-tetrahydro-1H-1-benzazepine-1-carbonyl]phenyl}-7-fluoro-1,2,3,4-tetrahydroisoquinolin-1-one] | 2.6 | 0.4 | < 4 | 5440 | 2040 | 1 |
| O=C(Nc1ccc(C(=O)N2CCC(F)(F)[C@](O)(CO)c3cc(Cl)ccc32)cn1)c1ccccc1-c1ccccc1 [Example 63, N-{5-[(5R)-7-chloro-4,4-difluoro-5-hydroxy-5-(hydroxymethyl)-2,3,4,5-tetrahydro-1H-1-benzazepine-1-carbonyl]pyridin-2-yl}-[1,1′-biphenyl]-2-carboxamide] | 1.4 | 1.1 | 3.1 ± 3.58 | 14400 | 4440 | 1 |
| COc1cc(C(=O)N2CCC(F)(F)[C@](O)(CO)c3cc(Cl)ccc32)ccc1NC(=O)c1ccc(F)cc1Cl [Example 58, 2-chloro-N-{4-[(5R)-7-chloro-4,4-difluoro-5-hydroxy-5-(hydroxymethyl)-2,3,4,5-tetrahydro-1H-1-benzazepine-1-carbonyl]-2-methoxyphenyl}-4-fluorobenzamide] | 9.3 | 1.3 | 1.81 ± 2.1 | 44900 | 5890 | 1 |
| Cc1ccccc1C(=O)Nc1ccc(C(=O)N2CCCC(O)c3cc(Cl)ccc32)c(C)c1 (stereo not shown) [Tolvaptan, reference compound] | – | – | 105 ± 11 | 1780 | 682 | 1 |
